# Data as given in patent publication US20160168119A1, “AUTOTAXIN INHIBITORS” (Novartis AG, priority 2013, published 2016).
# Target: T1, Recombinant human ATX (Homo sapiens, UniProt Q13822)
# T1 construct: made in house; host or cells: human embryonic kidney (HEK) cells
# Experiment: ATX inhibition assay (choline release, Amplex Red fluorescence)
# Type: biochemical
# Details: not given
# Experimental: Reagents—LPC (oleoyl (18:1)) was purchased from Avanti Polar Lipids (Alabaster, Ala.) and solubilized in methanol to 20 mM. Amplex Red was obtained from Invitrogen Life Technologies (Paisley, UK) and dissolved in DMSO to 10 mM. Choline oxidase and horseradish peroxidase (HRP) were obtained from Sigma Aldrich (Dorset, UK) and dissolved in HBSS to 20 U/ml and 200 U/ml respectively. All reagents were stored at −20° C. in single use aliquots. All experimental measurements were performed in assay buffer made up immediately prior to use (HBSS, 0.01% BSA essentially fatty acid free).
# PerkinElmer EnVision (Fluorescence Intensity/Absorbance Monochromator) or Tecan Infinite 200 PRO series plate reader was used to detect change in fluorescent intensity.
# Assessing ATX inhibition—ATX activity was determined by measurement of released choline in reactions containing ATX (10 nM), choline oxidase (0.1 U/ml), HRP (100 U/ml), amplex red (50 μM) and LPC 18:1 (10 μM). Compounds of the invention were prepared as 10 point serial dilutions from 1 μM in duplicate and pre-incubated with ATX at 37° C. for 20 minutes prior to the addition of remaining reagents. The liberated choline was measured from changes in fluorescence intensity (λex 530 nm, λem 590 nm) of the product resurofin at 37° C. every 2 minutes over a 40-minute period. ATX activity was measured as a slope of the linear portion of the progress curve, typically between 14 to 24 minutes.
# Data analysis—Slope data was exported to Graphpad prism (Graphpad software, San Diego, Calif.) where data was fitted to equation 1.
# Y=Bottom+(Top−Bottom)/(1+10̂((LogIC50−X)*HillSlope)) Equation 1: […]
row,SMILES,IC50 [nM]
1,"Cc1nnn(Cc2cc(C(F)(F)F)ccc2/C=C/C(=O)N(C)CCOc2ccccc2)n1 [Example 6.2, (E)-N-Methyl-3-(2-((5-methyl-2H-tetrazol-2-yl)methyl)-4-(trifluoromethyl)phenyl)-N-(2-phenoxyethyl)acrylamide]",9

# Same assay, conditions: ATX 10 nM, LPC 18:1 10 μM, pre-incubated 20 minutes at 37° C.; mean of n≧2; read-out: IC50
row,SMILES,IC50 [nM]
1,"Cc1nnn(Cc2cc(Cl)ccc2/C=C/C(=O)N(C)CC2CCN(C(=O)OC(C)(C)C)CC2)n1 [Example 1.1, (E)-tert-Butyl 4-((3-(4-chloro-2-((5-methyl-2H-tetrazol-2-yl)methyl)phenyl)-N-methylacrylamido)methyl)piperidine-1-carboxylate]",14
2,"CCN(C(=O)/C=C/c1ccc(C(F)(F)F)cc1Cn1nnc(C)n1)C1CCN(C(=O)OC(C)(C)C)CC1 [Example 1.2, (E)-tert-Butyl-4-(N-ethyl-3-(2-((5-methyl-2H-tetrazol-2-yl)methyl)-4-(trifluoromethyl)phenyl)acrylamido)piperidine-1-carboxylate]",20
3,"CCN(Cc1ccncc1)C(=O)/C=C/c1ccc(Cl)cc1Cn1nnc(C)n1 [Example 2.1, (E)-3-(4-Chloro-2-((5-methyl-2H-tetrazol-2-yl)methyl)phenyl)-N-ethyl-N-(pyridin-4-ylmethyl)acrylamide]",64
4,"Cc1csc(CN(C)C(=O)/C=C/c2ccc(Cl)cc2Cn2nnc(C)n2)n1 [Example 2.2, (E)-3-(4-Chloro-2-((5-methyl-2H-tetrazol-2-yl)methyl)phenyl)-N-methyl-N-((4-methylthiazol-2-yl)methyl)acrylamide]",74
5,"Cc1cc(CN(C)C(=O)/C=C/c2ccc(Cl)cc2Cn2nnc(C)n2)on1 [Example 2.3, (E)-3-(4-Chloro-2-((5-methyl-2H-tetrazol-2-yl)methyl)phenyl)-N-methyl-N-((3-methylisoxazol-5-yl)methyl)acrylamide]",73
6,"CCN(CCOC)C(=O)/C=C/c1ccc(Cl)cc1Cn1nnc(C)n1 [Example 2.4, (E)-3-(4-Chloro-2-((5-methyl-2H-tetrazol-2-yl)methyl)phenyl)-N-ethyl-N-(2-methoxyethyl)acrylamide]",50
7,"CCN(CC(O)c1cccc(O)c1)C(=O)/C=C/c1ccc(Cl)cc1Cn1nnc(C)n1 (centres unmarked) [Example 2.5, (E)-3-(4-Chloro-2-((5-methyl-2H-tetrazol-2-yl)methyl)phenyl)-N-ethyl-N-(2-hydroxy-2-(3-hydroxyphenyl)ethyl)acrylamide]",94
8,"Cc1nnn(Cc2cc(Cl)ccc2/C=C/C(=O)N(C)CC2CC(=O)N(C(C)(C)C)C2)n1 (centres unmarked) [Example 2.6, (E)-N-((1-(tert-Butyl)-5-oxopyrrolidin-3-yl)methyl)-3-(4-chloro-2-((5-methyl-2H-tetrazol-2-yl)methyl)phenyl)-N-methylacrylamide]",52
9,"Cc1nnn(Cc2cc(Cl)ccc2/C=C/C(=O)N(C)CC2CCCO2)n1 (centres unmarked) [Example 2.7, (E)-3-(4-Chloro-2-((5-methyl-2H-tetrazol-2-yl)methyl)phenyl)-N-methyl-N-((tetrahydrofuran-2-yl)methyl)acrylamide]",183
10,"Cc1nnn(Cc2cc(C(F)(F)F)ccc2/C=C/C(=O)N(C)CC2CCN(C(=O)c3ccc(F)cc3)CC2)n1 [Example 3, (E)-N-((1-(4-Fluorobenzoyl)piperidin-4-yl)methyl)-N-methyl-3-(2-((5-methyl-2H-tetrazol-2-yl)methyl)-4-(trifluoromethyl)phenyl)acrylamide]",10
11,"Cc1nnn(Cc2cc(C(F)(F)F)ccc2/C=C/C(=O)N(C)CC2CCN(S(=O)(=O)C3CC3)CC2)n1 [Example 4.1, (E)-N-((1-(Cyclopropylsulfonyl)piperidin-4-yl)methyl)-N-methyl-3-(2-((5-methyl-2H-tetrazol-2-yl)methyl)-4-(trifluoromethyl)phenyl)acrylamide]",4.9
12,"Cc1ccc(S(=O)(=O)N2CCC(CN(C)C(=O)/C=C/c3ccc(C(F)(F)F)cc3Cn3nnc(C)n3)CC2)cc1 [Example 4.2, (E)-N-Methyl-3-(2-((5-methyl-2H-tetrazol-2-yl)methy)-4-(trifluoromethyl)phenyl)-N-((1-tosylpiperidin-4-yl)methyl)acrylamide]",4.5
13,"Cc1nnn(Cc2cc(C(F)(F)F)ccc2/C=C/C(=O)N(C)CC2CCN(Cc3ccc(F)cc3)CC2)n1 [Example 5, (E)-N-((1-(4-Fluorobenzyl)piperidin-4-yl)methyl)-N-methyl-3-(2-((5-methyl-2H-tetrazol-2-yl)methyl)-4-(trifluoromethyl)phenyl)acrylamide]",13
14,"Cc1cc(CN(C)C(=O)/C=C/c2ccc(C(F)(F)F)cc2Cn2nnc(C)n2)n(C)n1 [Example 6.1, (E)-N-((1,3-Dimethyl-1H-pyrazol-5-yl)methyl)-N-methyl-3-(2-((5-methyl-2H-tetrazol-2-yl)methyl)-4-(trifluoromethyl)phenyl)acrylamide]",6.9
15,"Cc1csc(CN(C)C(=O)/C=C/c2ccc(C(F)(F)F)cc2Cn2nnc(C)n2)n1 [Example 6.3, (E)-N-Methyl-3-(2-((5-methyl-2H-tetrazol-2-yl)methyl)-4-(trifluoromethyl)phenyl)-N-((4-methylthiazol-2-yl)methyl)acrylamide]",40
16,"Cc1nnn(Cc2cc(C(F)(F)F)ccc2/C=C/C(=O)N(C)Cc2nnc(-c3ccccc3)o2)n1 [Example 6.4, (E)-N-Methyl-3-(2-((5-methyl-2H-tetrazol-2-yl)methyl)-4-(trifluoromethyl)phenyl)-N-((5-phenyl-1,3,4-oxadiazol-2-yl)methyl)acrylamide]",13
17,"COc1ccc(CNC(=O)CN(C)C(=O)/C=C/c2ccc(C(F)(F)F)cc2Cn2nnc(C)n2)cc1 [Example 6.5, (E)-N-(2-((4-Methoxybenzyl)amino)-2-oxoethyl)-N-methyl-3-(2-((5-methyl-2H-tetrazol-2-yl)methyl)-4-(trifluoromethyl)phenyl)acrylamide]",16
18,"Cc1nnn(Cc2cc(C(F)(F)F)ccc2/C=C/C(=O)N(C)CCCCc2cccnc2)n1 [Example 6.6, (E)-N-Methyl-3-(2-((5-methyl-2H-tetrazol-2-yl)methyl)-4-(trifluoromethyl)phenyl)-N-(4-(pyridin-3-yl)butyl)acrylamide]",49
19,"Cc1nnn(Cc2cc(C(F)(F)F)ccc2/C=C/C(=O)N(C)Cc2nc(-c3ccccc3)cs2)n1 [Example 6.7, (E)-N-Methyl-3-(2-((5-methyl-2H-tetrazol-2-yl)methyl)-4-(trifluoromethyl)phenyl)-N-((4-phenylthiazol-2-yl)methyl)acrylamide]",6
20,"Cc1nnn(Cc2cc(C(F)(F)F)ccc2/C=C/C(=O)N(C)CC2CC(=O)N(C(C)(C)C)C2)n1 (centres unmarked) [Example 6.8, (E)-N-((1-(tert-Butyl)-5-oxopyrrolidin-3-yl)methyl)-N-methyl-3-(2-((5-methyl-2H-tetrazol-2-yl)methyl)-4-(trifluoromethyl)phenyl)acrylamide]",7
21,"Cc1nnn(Cc2cc(C(F)(F)F)ccc2/C=C/C(=O)N(C)Cc2nc(-c3ccccc3)no2)n1 [Example 6.9, (E)-N-Methyl-3-(2-((5-methyl-2H-tetrazol-2-yl)methyl)-4-(trifluoromethyl)phenyl)-N-((3-phenyl-1,2,4-oxadiazol-5-yl)methyl)acrylamide]",5.3
22,"Cc1nnn(Cc2cc(C(F)(F)F)ccc2/C=C/C(=O)N(C)Cc2nc3ccccc3s2)n1 [Example 6.10, (E)-N-(Benzo[d]thiazol-2-ylmethyl)-N-methyl-3-(2-((5-methyl-2H-tetrazol-2-yl)methyl)-4-(trifluoromethyl)phenyl)acrylamide]",12
